{"source": "paper PMC2010749", "about": "“Cytotoxic and clastogenic effects of soluble and insoluble compounds containing hexavalent and trivalent chromium” (British Journal of Cancer, 1981)", "key": {"[1]": {"test_system": "BHK 21 Syrian hamster fibroblast line", "experiment": "Cell growth of BHK cultures (DNA + RNA content), Cr compounds added directly to medium", "type": "cell-based", "conditions": "48 h in MEM; 0.5/0.15/0.05 mg/ml (one value for all three)", "description": "(§1) Cell growth and labelling.-The reduction in cell growth, based on the nucleic acid content (DNA + RNA) of treated cultures, and the inhibition of DNA, RNA and protein syn- thesis, based on the incorporation of labelled precursors, were determined, to evaluate the cytotoxic effects of Cr compounds in BHK cell cultures. […] Three to four thousand cells were then examined for each dose level and each time interval, and the mitotic index (the ratio of all mitoses to the total number of cells) and the frequencies of each mitotic phase (the ratios of cells in each phase to total mitoses) were determined. […] Chromium compounds and cell treatments.- The tested compounds of Cr(VI) and Cr(III) and their physico-chemical properties are listed in Table I. In many experiments in which most of them were highly insoluble or only partially soluble (see Tables I, IV, V), Cr compounds were directly suspended in the growth medium used for treatments. In the experiments on the induction of chromosome aberrations and SCE in CHO cells, almost complete solubilization was obtained in N HCI for Cr(III) compounds and 0-5N NaOH for Cr(VI) compounds, after which they were diluted with MEM to the final concentrations specified in Table IX. […] The cytotoxic and clastogenic effects were usually deter- mined just at the end of Cr treatments, but sometimes the treated cells were washed with HBSS and incubated with normal growth medium, so that the effects of Cr were deter- mined at different times after the end of treatment (see Fig. 3 and Table VII)."}, "[2]": {"test_system": "BHK 21 Syrian hamster fibroblast line", "experiment": "DNA, RNA and protein syntheses in BHK cells, Cr compounds added directly to medium", "type": "cell-based", "conditions": "48 h in MEM; 0.5/0.15/0.05 mg/ml (one value for all three)", "description": "(§2) Cell growth and labelling.-The reduction in cell growth, based on the nucleic acid content (DNA + RNA) of treated cultures, and the inhibition of DNA, RNA and protein syn- thesis, based on the incorporation of labelled precursors, were determined, to evaluate the cytotoxic effects of Cr compounds in BHK cell cultures. […] Three to four thousand cells were then examined for each dose level and each time interval, and the mitotic index (the ratio of all mitoses to the total number of cells) and the frequencies of each mitotic phase (the ratios of cells in each phase to total mitoses) were determined. […] Chromium compounds and cell treatments.- The tested compounds of Cr(VI) and Cr(III) and their physico-chemical properties are listed in Table I. In many experiments in which most of them were highly insoluble or only partially soluble (see Tables I, IV, V), Cr compounds were directly suspended in the growth medium used for treatments. […] The cytotoxic and clastogenic effects were usually deter- mined just at the end of Cr treatments, but sometimes the treated cells were washed with HBSS and incubated with normal growth medium, so that the effects of Cr were deter- mined at different times after the end of treatment (see Fig. 3 and Table VII)."}, "[3]": {"test_system": "BHK 21 Syrian hamster fibroblast line", "experiment": "DNA, RNA and protein syntheses in BHK monolayers exposed to filtered medium preincubated with Cr compounds;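 further: DNA, RNA and protein synthesis in BHK cultures assessed by incorporation of labelled precursors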", "type": "cell-based", "conditions": "cells exposed 24 h", "description": "as §2"}, "[4]": {"test_system": "CHO Chinese hamster fibroblast line", "experiment": "Cell growth of CHO cultures (DNA + RNA content)", "type": "cell-based", "conditions": "32 h in MEM; 0.3 µg/ml", "description": "as §2"}, "[5]": {"test_system": "BHK 21 Syrian hamster fibroblast line", "conditions": "range in 4 experiments", "description": "as §2"}, "[6]": {"test_system": "HEp-2 human epithelial-like line", "conditions": "2 h exposure to medium preincubated 2 days with 0.5 mg/ml in presence of BHK cells", "description": "as §2"}, "[7]": {"test_system": "CHO Chinese hamster fibroblast line", "conditions": "0.1 µg/ml water-soluble Cr(VI) (0.3 µg/ml of salt)", "description": "Cell growth and labelling.-The reduction in cell growth, based on the nucleic acid content (DNA + RNA) of treated cultures, and the inhibition of DNA, RNA and protein syn- thesis, based on the incorporation of labelled precursors, were determined, to evaluate the cytotoxic effects of Cr compounds in BHK cell cultures. […] Three to four thousand cells were then examined for each dose level and each time interval, and the mitotic index (the ratio of all mitoses to the total number of cells) and the frequencies of each mitotic phase (the ratios of cells in each phase to total mitoses) were determined. […] Chromium compounds and cell treatments.- The tested compounds of Cr(VI) and Cr(III) and their physico-chemical properties are listed in Table I. In many experiments in which most of them were highly insoluble or only partially soluble (see Tables I, IV, V), Cr compounds were directly suspended in the growth medium used for treatments. In the experiments on the induction of chromosome aberrations and SCE in CHO cells, almost complete solubilization was obtained in N HCI for Cr(III) compounds and 0-5N NaOH for Cr(VI) compounds, after which they were diluted with MEM to the final concentrations specified in Table IX. […]"}, "[8]": {"experiment": "Solubility of chromium compounds (Table I)", "description": "as §1"}, "[9]": {"conditions": "preincubated 48 h with 0.05 mg/ml"}, "[10]": {"conditions": "preincubated 48 h with 0.15 mg/ml"}, "[11]": {"conditions": "preincubated 48 h with 0.5 mg/ml"}}, "note": "Read-outs that look alike come from different tables or passages of the source."}
{"compound": "[K+].[K+].[O]=[Cr](=[O])([O-])[O][Cr](=[O])(=[O])[O-]", "note": "[Potassium dichromate]", "values": [{"measurement": "Cell growth", "setting": "[1]", "value": "0 % of controls"}, {"measurement": "DNA synthesis", "setting": "[2]", "value": "0 % of controls"}, {"measurement": "Protein synthesis", "setting": "[2]", "value": "0 % of controls"}, {"measurement": "RNA synthesis", "setting": "[2]", "value": "0 % of controls"}, {"measurement": "DNA synthesis, preinc. in MEM", "setting": "[3]; [9]", "value": "24 % of controls"}, {"measurement": "DNA synthesis, preinc. in MEM+BHK", "setting": "[3]; [9]", "value": "35 % of controls"}, {"measurement": "Protein synthesis, preinc. in MEM", "setting": "[3]; [9]", "value": "100 % of controls"}, {"measurement": "Protein synthesis, preinc. in MEM+BHK", "setting": "[3]; [9]", "value": "100 % of controls"}, {"measurement": "RNA synthesis, preinc. in MEM", "setting": "[3]; [9]", "value": "90 % of controls"}, {"measurement": "RNA synthesis, preinc. in MEM+BHK", "setting": "[3]; [9]", "value": "100 % of controls"}, {"measurement": "DNA synthesis, preinc. in MEM", "setting": "[3]; [10]", "value": "4 % of controls"}, {"measurement": "DNA synthesis, preinc. in MEM+BHK", "setting": "[3]; [10]", "value": "16 % of controls"}, {"measurement": "Protein synthesis, preinc. in MEM", "setting": "[3]; [10]", "value": "68 % of controls"}, {"measurement": "Protein synthesis, preinc. in MEM+BHK", "setting": "[3]; [10]", "value": "100 % of controls"}, {"measurement": "RNA synthesis, preinc. in MEM", "setting": "[3]; [10]", "value": "42 % of controls"}, {"measurement": "RNA synthesis, preinc. in MEM+BHK", "setting": "[3]; [10]", "value": "64 % of controls"}, {"measurement": "DNA synthesis, preinc. in MEM", "setting": "[3]; [11]", "value": "4 % of controls"}, {"measurement": "DNA synthesis, preinc. in MEM+BHK", "setting": "[3]; [11]", "value": "7 % of controls"}, {"measurement": "Protein synthesis, preinc. in MEM", "setting": "[3]; [11]", "value": "52 % of controls"}, {"measurement": "Protein synthesis, preinc. in MEM+BHK", "setting": "[3]; [11]", "value": "69 % of controls"}, {"measurement": "RNA synthesis, preinc. in MEM", "setting": "[3]; [11]", "value": "39 % of controls"}, {"measurement": "RNA synthesis, preinc. in MEM+BHK", "setting": "[3]; [11]", "value": "49 % of controls"}, {"measurement": "Cell growth", "setting": "[4]", "value": 83, "unit": "% control"}, {"measurement": "Length of treatment giving 50% inhibition of RNA synthesis", "setting": "[5]; K2Cr2O7 10 µg/ml in HBSS", "value": "1 to 2", "unit": "h"}, {"measurement": "Length of treatment giving 50% inhibition of protein synthesis", "setting": "[5]; K2Cr2O7 10 µg/ml in HBSS", "value": "3 to 5", "unit": "h"}, {"measurement": "Length of treatment giving > 90% inhibition of DNA synthesis", "setting": "[5]; K2Cr2O7 10 µg/ml in HBSS", "value": "2 to 3", "unit": "h"}, {"measurement": "Length of treatment giving > 90% inhibition of RNA synthesis", "setting": "[5]; K2Cr2O7 10 µg/ml in HBSS", "value": "6 to 7", "unit": "h"}, {"measurement": "Length of treatment giving > 90% inhibition of protein synthesis", "setting": "[5]; K2Cr2O7 10 µg/ml in HBSS", "value": "8 to 10", "unit": "h"}, {"measurement": "Length of treatment giving 50% inhibition of DNA synthesis", "setting": "[5]; K2Cr2O7 10 µg/ml in MEM", "value": "0.5 to 1.0", "unit": "h"}, {"measurement": "Length of treatment giving 50% inhibition of RNA synthesis", "setting": "[5]; K2Cr2O7 10 µg/ml in MEM", "value": "2 to 4", "unit": "h"}, {"measurement": "Length of treatment giving 50% inhibition of protein synthesis", "setting": "[5]; K2Cr2O7 10 µg/ml in MEM", "value": "5 to 9", "unit": "h"}, {"measurement": "Length of treatment giving > 90% inhibition of DNA synthesis", "setting": "[5]; K2Cr2O7 10 µg/ml in MEM", "value": "2 to 3", "unit": "h"}, {"measurement": "Length of treatment giving > 90% inhibition of RNA synthesis", "setting": "[5]; K2Cr2O7 10 µg/ml in MEM", "value": "> 10", "unit": "h"}, {"measurement": "Length of treatment giving > 90% inhibition of protein synthesis", "setting": "[5]; K2Cr2O7 10 µg/ml in MEM", "value": "> 10", "unit": "h"}, {"measurement": "Length of treatment giving 50% inhibition of DNA synthesis", "setting": "[5]; K2Cr2O7 100 µg/ml in MEM", "value": "0 to 25", "unit": "h"}, {"measurement": "Length of treatment giving 50% inhibition of protein synthesis", "setting": "[5]; K2Cr2O7 100 µg/ml in MEM", "value": "1 to 3", "unit": "h"}, {"measurement": "Length of treatment giving > 90% inhibition of DNA synthesis", "setting": "[5]; K2Cr2O7 100 µg/ml in MEM", "value": "0 to 75", "unit": "h"}, {"measurement": "Length of treatment giving > 90% inhibition of RNA synthesis", "setting": "[5]; K2Cr2O7 100 µg/ml in MEM", "value": "5 to 7", "unit": "h"}, {"measurement": "Length of treatment giving > 90% inhibition of protein synthesis", "setting": "[5]; K2Cr2O7 100 µg/ml in MEM", "value": "6 to 10", "unit": "h"}, {"measurement": "Mitotic block (% increase of abnormal metaphases 2-4 h after treatment)", "setting": "[6]", "value": "+++ (+ + + (> 100%))"}, {"measurement": "Mitotic inhibition, early (% reduction of normal prophases at the end of treatment)", "setting": "[6]", "value": "+++ (+ + + (> 70%))"}, {"measurement": "Mitotic inhibition, late (% reduction of normal prophases 24 h after treatment)", "setting": "[6]", "value": "+++ (+ + + (> 70%))"}, {"measurement": "Caryological alterations", "setting": "[6]; grades not defined", "value": "~+"}, {"measurement": "Mean number of chromosome aberrations relative to control", "setting": "[7]", "value": "2-3 times the control values"}, {"measurement": "Solubility in water", "setting": "[8]", "value": "High"}]}
